Common to all, as to type: in vivo
For assay [1], the system named is Setaria faberi (SETFA). Kind of assay: Pre-emergence biological efficacy (Example 13). The settings on record: Setaria faberi, 312 h; pre-emergence, 1,000 g/ha, after 13 days; read-out: Percentage damage SETFA. Summed up:
(§1)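 Pre-emergence spray, 250 or 1000 g/ha, applied one day post-sowing; formulation acetone/water 50:50 + 0.5% Tween 20, diluted aqueous. Glasshouse 24/16 °C, 14 h light, 65% RH, watered twice daily. Scored day 13, 0–100% damage.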

Assay [2] has as its system Ipomea hederaceae (IPOHE). Kind of assay: Pre-emergence biological efficacy (Example 13). The settings on record: Ipomoea hederacea, 312 h; pre-emergence, 1,000 g/ha, after 13 days; read-out: Percentage damage IPOHE. The essentials: as §1
Assay [3] concerns Echinochloa crus-galli (ECHCG). Description: Pre-emergence biological efficacy (Example 13). Particulars: Echinochloa crus-galli, 312 h; pre-emergence, 1,000 g/ha, after 13 days; read-out: Percentage damage ECHCG. The essentials:
as §1

For assay [4], the system named is Solanum nigrum (SOLNI). Description: Pre-emergence biological efficacy (Example 13). Particulars: Solanum nigrum, 312 h; pre-emergence, 1,000 g/ha, after 13 days; read-out: Percentage damage SOLNI. Summed up: as §1
Assay [5] deals with Alopecurus myosuroides (ALOMY). Kind of assay: Pre-emergence biological efficacy (Example 13). The settings on record: Alopecurus myosuroides, 312 h; pre-emergence, 1,000 g/ha, after 13 days; read-out: Percentage damage ALOMY. Summed up:
as §1

The test system of the next assay is IPOHE Ipomoea hederacea. Kind of assay: Pre-emergence crop and weed test (Example 16). The settings on record: after 20 days. As to the method: (§2) Seeds of crop and representative weed species were sown in standard soil in pots. After cultivation for 1 day under controlled conditions in a glasshouse (at 22/16° C., day/night; 16 hours light; 65% humidity), the plants were sprayed. The spray solution was prepared by dissolving the technical active ingredient in acetone containing 10.56 wt % Emulsogen EL, 42.22 wt % N-methylpyrrolidone and 2.22 wt % DPG-monoethyl ether to give a 5% stock solution. This was then diluted with water containing 0.2% (v/v) of the adjuvant X-77 to give the desired treatment concentration.
(§3) The test plants were then grown on under controlled conditions in a glasshouse (at 22/16° C., day/night; 16 hours light; 65% humidity) and watered twice daily. After 20 days the test was evaluated (100=total damage to plant; 0=no damage to plant).
(§4) Species as for Post-Emergence Test.

A further assay deals with CHEAL Chenopodium album. Description: Pre-emergence crop and weed test (Example 16). The settings on record: after 20 days. On the procedure: as §2, §3, §4
Assay [6] deals with XANST Xanthium strumarium. Description: Pre-emergence crop and weed test (Example 16). The settings on record: after 20 days. On the procedure:
as §2, §3, §4

A further assay has as its system SINAR Sinapis arvensis. Description: Pre-emergence crop and weed test (Example 16). Particulars: after 20 days. As to the method:
as §2, §3, §4

A further assay deals with SIDSP Sida spinosa. Kind of assay: Pre-emergence crop and weed test (Example 16). The settings on record: after 20 days. As to the method: as §2, §3, §4
For assay [7], the system named is EPHHL Euphorbia heterophylla. Description: Pre-emergence crop and weed test (Example 16). The settings on record: after 20 days. As to the method:
as §2, §3, §4

The next assay relates to GALAP Galium aparine. Description: Pre-emergence crop and weed test (Example 16). The settings on record: after 20 days. On the procedure: as §2, §3, §4
For another assay, the system named is GLXMA Soybean. Kind of assay: Pre-emergence crop and weed test (Example 16). Particulars: after 20 days. As to the method: as §2, §3, §4
Assay [8] deals with POLCO Polygonum convolvulus. Description: Pre-emergence crop and weed test (Example 16). The settings on record: after 20 days. On the procedure: as §2, §3, §4
In assay [9] the test system is AMARE Amaranthus retroflexus. Description: Pre-emergence crop and weed test (Example 16). The settings on record: after 20 days. As to the method: as §2, §3, §4
Assay [10] concerns ABUTH Abutilon theophrasti. Kind of assay: Pre-emergence crop and weed test (Example 16). The settings on record: after 20 days. On the procedure: as §2, §3, §4
The subject of assay [11] is Setaria faberi (SETFA). Kind of assay: Post-emergence biological efficacy (Example 14). Particulars: Setaria faberi, 312 h; post-emergence, 1,000 g/ha, after 13 days; read-out: Percentage damage SETFA. The essentials: (§5)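 Visual damage rating, 0 (none) to 100 (total), taken 13 days after spraying. Plants sown in standard soil, grown 8 days at 24/16 °C, 14 h light, 65% RH, then treated at 250 or 1000 g/ha from acetone/water 50:50 with 0.5% Tween 20; watered twice daily.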

The test system of assay [12] is Ipomea hederaceae (IPOHE). Description: Post-emergence biological efficacy (Example 14). Particulars: Ipomoea hederacea, 312 h; post-emergence, 1,000 g/ha, after 13 days; read-out: Percentage damage IPOHE. Summed up: as §5
Assay [13] concerns Amaranthus retroflexus (AMARE). Description: Post-emergence biological efficacy (Example 14). Particulars: Amaranthus retroflexus, 312 h; post-emergence, 1,000 g/ha, after 13 days; read-out: Percentage damage AMARE. The essentials: as §5
The test system of assay [14] is Echinochloa crus-galli (ECHCG). Kind of assay: Post-emergence biological efficacy (Example 14). The settings on record: Echinochloa crus-galli, 312 h; post-emergence, 1,000 g/ha, after 13 days; read-out: Percentage damage ECHCG. The essentials: as §5
Assay [15] has as its system Solanum nigrum (SOLNI). Kind of assay: Post-emergence biological efficacy (Example 14). The settings on record: Solanum nigrum, 312 h; post-emergence, 1,000 g/ha, after 13 days; read-out: Percentage damage SOLNI. The essentials:
as §5

Assay [16] deals with Alopecurus myosuroides (ALOMY). Kind of assay: Post-emergence biological efficacy (Example 14). The settings on record: Alopecurus myosuroides, 312 h; post-emergence, 1,000 g/ha, after 13 days; read-out: Percentage damage ALOMY. The essentials:
as §5

`C/C=C/c1c(N)nc(-c2ccc(Cl)c(OC)c2F)nc1C(=O)OC` [Compound 3, (E)-4-Amino-2-(4-chloro-2-fluoro-3-methoxy-phenyl)-6-methoxy-carbonyl-5-(prop-1-enyl)-pyrimidine]: the pest or weed control at 1000 g/ha with Setaria faberi (SETFA) [1] turned out to be 80%; in assay [2], 90%; in assay [3], 90%; in the assay on Solanum nigrum (SOLNI) [4] it was 80%; in assay [5], 90%; in the assay on Setaria faberi (SETFA) [11], 100%. For the same compound, the pest or weed control at 1000 g/ha is 90% in assay [12]; 100% in [13]; 100% in assay [14]; 100% in the assay with Solanum nigrum (SOLNI) [15]; 90% in assay [16]. Also, the “Percentage damage IPOHE” value in the assay on IPOHE Ipomoea hederacea (30 g/ha) turned out to be 0%. For the same compound, the “Percentage damage CHEAL” value with CHEAL Chenopodium album (30 g/ha) is 100%. Also, the “Percentage damage XANST” value in [6] (30 g/ha) is 10%. Also, the “Percentage damage SINAR” value in the assay on SINAR Sinapis arvensis (30 g/ha) came out at 40%. Moreover, the “Percentage damage SIDSP” value in the assay with SIDSP Sida spinosa (30 g/ha) stood at 90%. The “Percentage damage EPHHL” value in [7] (30 g/ha) came to 100%. Also, the “Percentage damage GALAP” value in the assay on GALAP Galium aparine (30 g/ha) turned out to be 100%. For the same compound, in the assay on GLXMA Soybean (30 g/ha), the “Percentage damage GLXMA” value stood at 0%. Also, in [8] (30 g/ha), the “Percentage damage POLCO” value was 50%. In addition, the “Percentage damage AMARE” value in [9] (30 g/ha) is reported as 80%. Also, in [10] (30 g/ha), the “Percentage damage ABUTH” value was 30%.
On to `C/C=C\c1c(N)nc(-c2ccc(Cl)c(OC)c2F)nc1C(=O)OC` [Compound 4, (Z)-4-Amino-2-(4-chloro-2-fluoro-3-methoxy-phenyl)-6-methoxy-carbonyl-5-(prop-1-enyl)-pyrimidine], for which the pest or weed control at 1000 g/ha in the assay with Setaria faberi (SETFA) [1] stood at 80%; in assay [2], 100%; in assay [3], 90%; in the assay on Solanum nigrum (SOLNI) [4], 100%; in [5], 80%; in the assay with Setaria faberi (SETFA) [11] it was 90%. For the same compound, the pest or weed control at 1000 g/ha in assay [12] amounted to 100%; in [13] it was 100%; in [14], 80%; in the assay with Solanum nigrum (SOLNI) [15], 80%; in assay [16], 70%. In addition, the “Percentage damage IPOHE” value in the assay with IPOHE Ipomoea hederacea (125 g/ha) worked out at 50%. Moreover, in the assay with CHEAL Chenopodium album (125 g/ha), the “Percentage damage CHEAL” value is 40%. Further, in assay [6] (125 g/ha), the “Percentage damage XANST” value is 30%. For the same compound, the “Percentage damage SINAR” value with SINAR Sinapis arvensis (125 g/ha) turned out to be 50%. For the same compound, the “Percentage damage SIDSP” value in the assay on SIDSP Sida spinosa (125 g/ha) came out at 100%. The “Percentage damage EPHHL” value in [7] (125 g/ha) is on record as 100%. The “Percentage damage GALAP” value with GALAP Galium aparine (125 g/ha) came to 80%. For the same compound, the “Percentage damage GLXMA” value in the assay with GLXMA Soybean (125 g/ha) stood at 10%. For the same compound, the “Percentage damage POLCO” value in assay [8] (125 g/ha) is reported as 20%. The “Percentage damage AMARE” value in [9] (125 g/ha) came to 100%. Besides, in [10] (125 g/ha), the “Percentage damage ABUTH” value was 100%.
Regarding `C/C=C\c1c(N)nc(-c2ccc(Cl)c(N(C)C)c2F)nc1C(=O)OC` [Compound 5, (Z)-4-Amino-2-(4-chloro-3-dimethylamino-2-fluorophenyl)-6-methoxy-carbonyl-5-(prop-1-enyl)-pyrimidine], the pest or weed control at 1000 g/ha turned out to be 30% with Setaria faberi (SETFA) [1]; 20% in assay [2]; 30% in assay [3]; 60% in the assay on Solanum nigrum (SOLNI) [4]; 30% in assay [5]; 70% in the assay on Setaria faberi (SETFA) [11]. Besides, the pest or weed control at 1000 g/ha turned out to be 30% in assay [12]; 100% in assay [13]; 70% in assay [14]; 80% in the assay with Solanum nigrum (SOLNI) [15]; 60% in [16]. Moreover, in the assay on IPOHE Ipomoea hederacea (125 g/ha), the “Percentage damage IPOHE” value was 50%. The “Percentage damage CHEAL” value in the assay with CHEAL Chenopodium album (125 g/ha) was 100%. In assay [6] (125 g/ha), the “Percentage damage XANST” value is listed as 40%. In addition, in the assay on SINAR Sinapis arvensis (125 g/ha), the “Percentage damage SINAR” value was 40%. Also, the “Percentage damage SIDSP” value in the assay with SIDSP Sida spinosa (125 g/ha) is 90%. Further, the “Percentage damage EPHHL” value in [7] (125 g/ha) was determined as 100%. Besides, the “Percentage damage GALAP” value in the assay with GALAP Galium aparine (125 g/ha) came out at 100%. Also, the “Percentage damage GLXMA” value in the assay with GLXMA Soybean (125 g/ha) came to 0%. Further, the “Percentage damage POLCO” value in [8] (125 g/ha) turned out to be 0%. In addition, the “Percentage damage AMARE” value in assay [9] (125 g/ha) worked out at 90%. The “Percentage damage ABUTH” value in [10] (125 g/ha) is recorded as 70%.

Source of the values: patent publication US20120115724A1, “METHOD OF CONTROLLING UNDESIRED VEGETATION” (SYNGENTA CROP PROTECTION LLC, priority 2009, published 2012).
